Among the test systems are NCI-H522; SNB-19; SF-539; A498; SK-MEL-28; BT-549; UACC-257; KM12; SF-268; SK-MEL-5; RXF 393; OVCAR-4; K562; ACHN; OVCAR-3; OVCAR-5; MDA-MB-231; HOP-62; LOX IMVI.
What all share (assay): NCI-60 cell line screen, 48 h

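The compound was tested at five concentrations on cells cultured in 96-well plates, with a 48-hour exposure period. Abbreviation: GI50, concentration required for 50% inhibition of growth.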 Active and inactive are the calls of the source. No stated cut-off is given here; in the data, active = GI50 up to about 1.1 µM and inactive = higher.

In the case of `Cc1ccc(C(=O)NC2C(=O)NC(C(C)C)C(=O)N3CCCC3C(=O)N(C)CC(=O)N(C)C(C(C)C)C(=O)OC2C)c2c1Oc1c(c(C(=O)NC3C(=O)NC(C(C)C)C(=O)N4CCCC4C(=O)N(C)CC(=O)N(C)C(C(C)C)C(=O)OC3C)c3nc(-c4ccccc4)c(=O)oc3c1C)N2` (stereo not given), the GI50 with NCI-H522 was 0.0024 µM (active); in the experiment with SNB-19, < 0.001 µM (active); with SF-539, < 0.001 µM (active); with A498, < 0.001 µM (active); with SK-MEL-28, < 0.001 µM (active); in the experiment on BT-549, < 0.001 µM (active). In addition, the GI50 is 0.00871 µM (active) in the experiment on UACC-257; < 0.001 µM (active) in the experiment on KM12; < 0.001 µM (active) with SF-268; 0.00177 µM (active) in the experiment with SK-MEL-5; 0.00161 µM (active) in the experiment with RXF 393; 0.151 µM (active) in the experiment with OVCAR-4. In addition, the GI50 was 0.00312 µM (active) with K562; 0.00515 µM (active) in the experiment with ACHN; 0.01 µM (active) in the experiment on OVCAR-3; 0.00216 µM (active) with OVCAR-5; 0.00762 µM (active) with MDA-MB-231; < 0.001 µM (active) with HOP-62. Moreover, the GI50 in the experiment on LOX IMVI was < 0.001 µM (active).

As to `O=C1C=C(O)C(=O)c2c(O)ccc(O)c21`, the GI50 in the experiment on NCI-H522, in the experiment on SNB-19, in the experiment on SF-539, in the experiment on A498, in the experiment on SK-MEL-28 and with BT-549 was > 100 µM (inactive) in each case. For the same compound, the GI50 with UACC-257, in the experiment with KM12, in the experiment on SF-268, with SK-MEL-5, with RXF 393 and with OVCAR-4 was > 100 µM (inactive) in each case. For the same compound, the GI50 in the experiment on K562, in the experiment with ACHN, with OVCAR-3, in the experiment with OVCAR-5, in the experiment with MDA-MB-231 and with HOP-62 was > 100 µM (inactive) each time. Moreover, the GI50 with LOX IMVI is > 100 µM (inactive).

Take `CC(C)C[C@H](NC(=O)[C@H](Cc1ccccc1)NC(=O)CCc1ccccc1)B(O)O`: the GI50 in the experiment on NCI-H522, with SNB-19, in the experiment on SF-539, in the experiment on A498, in the experiment on SK-MEL-28 and in the experiment with BT-549 was < 0.01 µM (active) each time. The GI50 in the experiment on UACC-257, in the experiment with KM12, in the experiment with SF-268, in the experiment on SK-MEL-5, in the experiment with RXF 393 and in the experiment on OVCAR-4 was < 0.01 µM (active) throughout. The GI50 in the experiment on K562, with ACHN, in the experiment with OVCAR-3, in the experiment on OVCAR-5, in the experiment on MDA-MB-231 and in the experiment on HOP-62 was < 0.01 µM (active) throughout. For the same compound, in the experiment with LOX IMVI, the GI50 is < 0.01 µM (active).

Turning to `CN(C)CCNc1ccc(NCCN(C)C)c2c1C(=O)c1ncsc1C2=O`, the GI50 in the experiment with NCI-H522 is 11.6 µM (inactive); in the experiment with SNB-19, 18.6 µM (inactive); in the experiment on SF-539 it was 12.9 µM (inactive); with A498, 14.1 µM (inactive); with SK-MEL-28, 15.3 µM (inactive); in the experiment on BT-549, 18.1 µM (inactive). In addition, the GI50 with UACC-257 was 18.5 µM (inactive); with KM12, 11.4 µM (inactive); with SF-268, 15.4 µM (inactive); with SK-MEL-5 it was 15.8 µM (inactive); in the experiment with RXF 393, 18.6 µM (inactive); in the experiment with OVCAR-4, 10.2 µM (inactive). Besides, the GI50 in the experiment on K562 is 13.6 µM (inactive); in the experiment with ACHN it was 8.2 µM (inactive); in the experiment on OVCAR-3, 4.65 µM (inactive); with OVCAR-5, 21.8 µM (inactive); with MDA-MB-231, 15.9 µM (inactive); with HOP-62 it was 13.2 µM (inactive). Besides, in the experiment with LOX IMVI, the GI50 is 8.53 µM (inactive).

`COc1ccccc1-c1c(C#N)c(N)[nH]c(=S)c1C#N`: the GI50 in the experiment on NCI-H522 was 23.2 µM (inactive); in the experiment with SNB-19, > 100 µM (inactive); in the experiment on SF-539, > 100 µM (inactive); in the experiment with A498, 86.1 µM (inactive); with SK-MEL-28, 71.6 µM (inactive); in the experiment on BT-549, 47.9 µM (inactive). The GI50 in the experiment on UACC-257 is > 100 µM (inactive); in the experiment on KM12, 62.8 µM (inactive); in the experiment on SF-268 it was 47.6 µM (inactive); in the experiment on SK-MEL-5, 32.1 µM (inactive); with RXF 393, 34.4 µM (inactive); in the experiment on OVCAR-4, 57.8 µM (inactive). Besides, the GI50 in the experiment on K562 was 14.4 µM (inactive); in the experiment with ACHN it was > 100 µM (inactive); in the experiment with OVCAR-3 it was 56.1 µM (inactive); in the experiment with OVCAR-5 it was > 100 µM (inactive); in the experiment with MDA-MB-231, 47.6 µM (inactive); with HOP-62, > 100 µM (inactive). Besides, the GI50 in the experiment on LOX IMVI is 65.2 µM (inactive).

With `NNC(=O)CSc1nc2ccc(I)cc2c(=O)n1Cc1ccccc1`, the GI50 in the experiment with NCI-H522 is 14.9 µM (inactive); in the experiment with SNB-19, 23.3 µM (inactive); in the experiment with SF-539, 19.7 µM (inactive); with A498 it was 14.2 µM (inactive); with SK-MEL-28, 28.4 µM (inactive); in the experiment with BT-549, 23.2 µM (inactive). Also, the GI50 in the experiment on UACC-257 was 19.9 µM (inactive); with KM12, 23.5 µM (inactive); in the experiment with SF-268 it was 17.5 µM (inactive); in the experiment on SK-MEL-5 it was 17.2 µM (inactive); in the experiment with RXF 393, 13.1 µM (inactive); in the experiment with OVCAR-4 it was 19.5 µM (inactive). Further, the GI50 was 26.1 µM (inactive) with K562; 18.7 µM (inactive) in the experiment with ACHN; 18.4 µM (inactive) with OVCAR-3; 20.4 µM (inactive) with OVCAR-5; 14.3 µM (inactive) in the experiment with MDA-MB-231; 19 µM (inactive) in the experiment on HOP-62. Also, the GI50 in the experiment with LOX IMVI was 15.6 µM (inactive).

On to `Cc1nc(O)nc(N/N=C/c2ccc(Cl)c(Cl)c2)c1C(=O)Nc1ccc(Cl)c(Cl)c1`, for which the GI50 in the experiment with NCI-H522 was 17.1 µM (inactive); in the experiment on SNB-19, 9.59 µM (inactive); in the experiment on SF-539, 15.7 µM (inactive); in the experiment on A498 it was 3.12 µM (inactive); in the experiment on SK-MEL-28, 8.97 µM (inactive); with BT-549, 19.5 µM (inactive). The GI50 was > 24.6 µM (inactive) in the experiment with UACC-257; 6.49 µM (inactive) with KM12; 10.5 µM (inactive) with SF-268; 9.59 µM (inactive) in the experiment with SK-MEL-5; 15.2 µM (inactive) in the experiment with RXF 393; 3.62 µM (inactive) in the experiment on OVCAR-4. For the same compound, the GI50 was 11.5 µM (inactive) in the experiment on K562; > 38.6 µM (inactive) in the experiment with ACHN; 9.62 µM (inactive) in the experiment on OVCAR-3; 26.5 µM (inactive) with OVCAR-5; 2.44 µM (inactive) with MDA-MB-231; 10.8 µM (inactive) with HOP-62. In addition, the GI50 in the experiment with LOX IMVI is 15.1 µM (inactive).

Regarding `Cc1cc2c(cc1Cl)SC(NNC(=O)c1ccco1)=NS2(=O)=O`, the GI50 with NCI-H522, with SNB-19, with SF-539, in the experiment on A498, in the experiment with SK-MEL-28 and with BT-549 was > 10 µM (inactive) in each case. The GI50 with UACC-257, with KM12, with SF-268, in the experiment with SK-MEL-5, in the experiment on RXF 393 and with OVCAR-4 was > 10 µM (inactive) in each case. The GI50 in the experiment on K562, with ACHN, in the experiment with OVCAR-3, in the experiment on OVCAR-5, in the experiment with MDA-MB-231 and with HOP-62 was > 10 µM (inactive) each time. In the experiment on LOX IMVI, the GI50 was > 10 µM (inactive).

`Clc1cc2ccccc2c2ccccc12`: the GI50 is 33.8 µM (inactive) in the experiment on NCI-H522; 43 µM (inactive) in the experiment on SNB-19; 64 µM (inactive) in the experiment with SF-539; > 100 µM (inactive) in the experiment on A498; 46.2 µM (inactive) in the experiment with SK-MEL-28; 49.2 µM (inactive) with BT-549. Besides, the GI50 was 55.2 µM (inactive) in the experiment with UACC-257; 47.9 µM (inactive) with KM12; 74 µM (inactive) in the experiment with SF-268; 63.2 µM (inactive) in the experiment with SK-MEL-5; 32.8 µM (inactive) in the experiment with RXF 393; 42.1 µM (inactive) in the experiment on OVCAR-4. Further, the GI50 was 42.1 µM (inactive) in the experiment with K562; 82.2 µM (inactive) with ACHN; 52.2 µM (inactive) in the experiment on OVCAR-3; > 100 µM (inactive) in the experiment with OVCAR-5; > 100 µM (inactive) in the experiment on MDA-MB-231; > 100 µM (inactive) with HOP-62. In addition, the GI50 in the experiment with LOX IMVI is 53.7 µM (inactive).

With `COC1=C2CC(C)CC(OC)C(OC(=O)CCCN)C(C)/C=C(\C)C(OC(N)=O)C(OC)/C=C\C=C(/C)C(=O)NC(=CC1=O)C2=O` (stereo not given), the GI50 was 0.431 µM (active) in the experiment with NCI-H522; 15.4 µM (inactive) in the experiment with SNB-19; 6.71 µM (inactive) in the experiment with SF-539; 16.4 µM (inactive) in the experiment on A498; 8.61 µM (inactive) in the experiment with SK-MEL-28; 4.29 µM (inactive) with BT-549. Besides, the GI50 in the experiment on UACC-257 is 5.64 µM (inactive); with KM12, 10.3 µM (inactive); with SF-268, 10.3 µM (inactive); in the experiment with SK-MEL-5, 9.14 µM (inactive); in the experiment with RXF 393 it was 3.12 µM (inactive); in the experiment with OVCAR-4, 7 µM (inactive). The GI50 with K562 is 0.54 µM (active); in the experiment with ACHN, 5.4 µM (inactive); in the experiment on OVCAR-3 it was 3.2 µM (inactive); with OVCAR-5, 10.2 µM (inactive); in the experiment on MDA-MB-231, 9.16 µM (inactive); in the experiment on HOP-62 it was 17.3 µM (inactive). Also, the GI50 in the experiment on LOX IMVI was 2.64 µM (inactive).

The values above are taken from ChEMBL document CHEMBL1201862, “PubChem BioAssay data set” (2004).
